Source: patent publication US10689354B2, “Aminoazole derivative” (Teijin Pharma Limited, priority 2015, dated 2020)

How the values were obtained:
[1] = target: T1, androgen receptor (AR-LBD) (Rattus norvegicus, UniProt P15207); assay: Evaluation of androgen receptor affinity (PolarScreen Androgen Receptor Competitor Assay Kit, Red; fluorescence polarization); details: 22° C. for 5 hours, relative to binding rate of 1 μM DHT, read-out: AR affinity (pEC50) (converted)
T1 construct: 5 μL of 2×AR-LBD/Fluoromone AL Red Complex contained in the kit; purchased Invitrogen
T1 sequence (P15207 651-882 limits assumed): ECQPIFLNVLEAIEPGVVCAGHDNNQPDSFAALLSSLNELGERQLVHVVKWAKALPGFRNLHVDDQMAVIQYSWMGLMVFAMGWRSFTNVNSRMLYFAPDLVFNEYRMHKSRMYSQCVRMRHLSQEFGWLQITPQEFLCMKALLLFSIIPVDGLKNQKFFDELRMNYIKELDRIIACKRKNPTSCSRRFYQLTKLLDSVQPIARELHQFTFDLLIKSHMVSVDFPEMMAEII
Procedure, shortened: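 FP competition: compound + AR-LBD/Fluoromone AL Red tracer complex, 22° C, 5 h. Reference 1 μM DHT binding rate; pEC50 by 4-parameter fit.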

human androgen receptor = target: T2, human androgen receptor (Homo sapiens, UniProt P10275); assay: Reporter assay of an androgen receptor responsive sequence (luciferase, transiently transfected HEK293 cells); format: cell-based; details: 24 hours incubation, relative to activity of 100 nM DHT, read-out: AR transcriptive activity (pEC50) (converted)
T2 construct: expressed in transfected cells; host or cells: HEK293
T2 sequence (P10275 1-920): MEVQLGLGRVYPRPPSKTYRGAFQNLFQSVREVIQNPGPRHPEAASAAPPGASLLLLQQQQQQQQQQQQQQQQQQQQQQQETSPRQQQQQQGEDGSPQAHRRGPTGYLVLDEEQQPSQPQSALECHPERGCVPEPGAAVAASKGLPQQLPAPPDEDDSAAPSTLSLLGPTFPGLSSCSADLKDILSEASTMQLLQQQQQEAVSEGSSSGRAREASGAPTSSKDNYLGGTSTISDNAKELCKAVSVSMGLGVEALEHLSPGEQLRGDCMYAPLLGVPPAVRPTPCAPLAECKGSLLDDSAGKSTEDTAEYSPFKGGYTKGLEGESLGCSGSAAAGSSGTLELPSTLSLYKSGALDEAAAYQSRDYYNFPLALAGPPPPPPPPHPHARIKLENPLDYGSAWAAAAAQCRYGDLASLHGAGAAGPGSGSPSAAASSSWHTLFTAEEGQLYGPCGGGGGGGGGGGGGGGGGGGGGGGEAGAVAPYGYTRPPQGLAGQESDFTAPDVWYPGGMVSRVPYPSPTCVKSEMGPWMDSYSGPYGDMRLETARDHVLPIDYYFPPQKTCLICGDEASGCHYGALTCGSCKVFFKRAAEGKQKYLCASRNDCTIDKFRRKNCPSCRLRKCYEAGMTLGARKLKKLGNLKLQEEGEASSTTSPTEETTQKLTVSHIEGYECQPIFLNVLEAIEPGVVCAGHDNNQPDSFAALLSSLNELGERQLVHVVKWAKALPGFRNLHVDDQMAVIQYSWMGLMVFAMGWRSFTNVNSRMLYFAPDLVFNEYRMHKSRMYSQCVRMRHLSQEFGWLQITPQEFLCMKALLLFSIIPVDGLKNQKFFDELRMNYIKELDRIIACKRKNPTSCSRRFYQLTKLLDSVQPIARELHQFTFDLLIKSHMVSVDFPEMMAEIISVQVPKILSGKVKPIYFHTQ
Procedure, shortened: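 Agonism scored as pEC50, fitted by 4-parameter curve against the response to 100 nM DHT, from dual-luciferase readout after 24 h compound treatment. Cells were HEK293 co-transfected (3 h) with human AR expression vector, androgen-responsive firefly reporter and Renilla control, in charcoal-stripped serum.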

Row | Structure (SMILES) | EC50 [1] | EC50 (human androgen receptor)
1 | CCS(=O)(=O)NC(=O)c1nc(N(CCc2ccc(Cl)cc2)Cc2ccc(Cl)cc2)sc1C [Compound 693, 2-[2-(4-chlorophenyl)ethyl-[(4-chlorophenyl)methyl]amino]-N-ethylsulfonyl-5-methyl-thiazole-4-carboxamide] | 31.6 nM | 200 nM
2 | Cc1sc(N(Cc2ccccc2O)c2ccc(C#N)cc2)nc1C(=O)NS(C)(=O)=O [Compound 461, 2-[4-cyano-N-[(2-hydroxyphenyl)methyl]anilino]-5-methyl-N-methylsulfonyl-thiazole-4-carboxamide] | 100 nM | 158 nM
3 | Cc1nc(CN(c2ccc(C#N)cc2)c2nc(C(=O)NS(C)(=O)=O)c(C)s2)cs1 [Compound 40, 2-[4-cyano-N-[(2-methylthiazol-4-yl)methyl]anilino]-5-methyl-N-methylsulfonyl-thiazole-4-carboxamide] | 1000 nM | 501 nM
4 | Cc1sc(N(CCc2ccc(C#N)cc2)Cc2ccc(OC(F)(F)F)cc2)nc1C(=O)NS(=O)(=O)C1CC1 [Compound 721, 2-[2-(4-cyanophenyl)ethyl-[[4-(trifluoromethoxy)phenyl]methyl]amino]-N-cyclopropylsulfonyl-5-methyl-thiazole-4-carboxamide] | 158 nM | > 10000 nM
5 | Cc1sc(N(Cc2cccc(-n3cccn3)c2)c2ccc(C#N)cc2)nc1C(=O)NS(C)(=O)=O [Example 219, 2-[4-cyano-N-[(3-pyrazol-1-ylphenyl)methyl]anilino]-5-methyl-N-methylsulfonyl-thiazole-4-carboxamide] | 63.1 nM | 1580 nM
6 | Cc1sc(N(Cc2ccc(Br)cc2C#N)c2ccc(C#N)cc2)nc1C(=O)NS(C)(=O)=O [Example 182, 2-[N-[(4-bromo-2-cyano-phenyl)methyl]-4-cyano-anilino]-5-methyl-N-methylsulfonyl-thiazole-4-carboxamide] | 631 nM | > 10000 nM
7 | CCc1oc(N(CC[C@@H]2CCCC[C@H]2O)c2ccc(C#N)cc2)nc1C(=O)NS(C)(=O)=O (racemic) [Compound 629, 2-[4-cyano-N-[2-[trans-2-hydroxycyclohexyl]ethyl]anilino]-5-ethyl-N-methylsulfonyl-oxazole-4-carboxamide] | 316 nM | 2510 nM
8 | Cc1sc(N(CCc2ccc(C(F)(F)F)cc2)Cc2ccccc2)nc1C(=O)NS(C)(=O)=O [Compound 333, 2-[benzyl-[2-[4-(trifluoromethyl)phenyl]ethyl]amino]-5-methyl-N-methylsulfonyl-thiazole-4-carboxamide] | 25.1 nM | 100 nM
9 | COc1ccc(CN(c2ccc(C#N)cc2)c2nc(C(=O)NS(C)(=O)=O)c(C)s2)nc1 [Compound 515, 2-[4-cyano-N-[(5-methoxy-2-pyridyl)methyl]anilino]-5-methyl-N-methylsulfonyl-thiazole-4-carboxamide] | 794 nM | 501 nM
10 | Cc1sc(N(CCc2ccc(C#N)cc2)Cc2ccc(OC(F)(F)F)cc2)nc1C(=O)NS(=O)(=O)Cc1ccncc1 [Compound 742, 2-[2-(4-cyanophenyl)ethyl-[[4-(trifluoromethoxy)phenyl]methyl]amino]-5-methyl-N-(4-pyridylmethylsulfonyl)thiazole-4-carboxamide] | 25.1 nM | 2000 nM
11 | Cc1sc(N(Cc2ccc(F)c(Cl)c2)c2ccc(C#N)cc2)nc1C(=O)NS(C)(=O)=O [Compound 117, 2-[N-[(3-chloro-4-fluoro-phenyl)methyl]-4-cyano-anilino]-5-methyl-N-methylsulfonyl-thiazole-4-carboxamide] | 25.1 nM | 63.1 nM
12 | Cc1sc(N(Cc2ccc(OC(F)F)c(F)c2)c2ccc(C#N)cc2)nc1C(=O)NS(C)(=O)=O [Example 172, 2-[4-cyano-N-[[4-(difluoromethoxy)-3-fluoro-phenyl]methyl]anilino]-5-methyl-N-methylsulfonyl-thiazole-4-carboxamide] | 31.6 nM | 31.6 nM
13 | Cc1sc(N(Cc2ccc(OC(F)F)cn2)c2ccc(C#N)cc2)nc1C(=O)NS(C)(=O)=O [Compound 511, 2-[4-cyano-N-[[5-(difluoromethoxy)-2-pyridyl]methyl]anilino]-5-methyl-N-methylsulfonyl-thiazole-4-carboxamide] | 158 nM | 316 nM
14 | Cc1sc(N(Cc2nc3ccccc3s2)c2ccc(C#N)cc2)nc1C(=O)NS(C)(=O)=O [Compound 497, 2-[N-(1,3-benzothiazol-2-ylmethyl)-4-cyano-anilino]-5-methyl-N-methylsulfonyl-thiazole-4-carboxamide] | 126 nM | 200 nM
15 | [2H]c1c([2H])c([2H])c(C([2H])([2H])N(c2ccc(C#N)cc2)c2nc(C(=O)NS(C)(=O)=O)c(C)s2)c([2H])c1[2H] [Compound 388, 2-(4-cyano-N-[dideuterio-(2,3,4,5,6-pentadeuteriophenyl)methyl]anilino)-5-methyl-N-methylsulfonyl-thiazole-4-carboxamide] | 50.1 nM | 63.1 nM
16 | COCCCS(=O)(=O)NC(=O)c1nc(N(Cc2ccc(Cl)cc2)c2ccc(C#N)cc2)sc1C [Example 166, 2-[N-[(4-chlorophenyl)methyl]-4-cyano-anilino]-N-(3-methoxypropylsulfonyl)-5-methyl-thiazole-4-carboxamide] | 25.1 nM | 79.4 nM
17 | Cc1sc(N(Cc2ccccc2)c2ccc(C#N)cc2)nc1C(=O)NS(=O)(=O)C(F)(F)F [Compound 364, 2-(N-benzyl-4-cyano-anilino)-5-methyl-N-(trifluoromethylsulfonyl)thiazole-4-carboxamide] | 31.6 nM | > 10000 nM
18 | Cc1sc(N(Cc2cccc(F)c2F)c2ccc(C#N)cc2)nc1C(=O)NS(C)(=O)=O [Compound 102, 2-[4-cyano-N-[(2,3-difluorophenyl)methyl]anilino]-5-methyl-N-methylsulfonyl-thiazole-4-carboxamide] | 79.4 nM | 50.1 nM
19 | Cc1sc(N(Cc2csc(C(C)C)n2)c2ccc(C#N)cc2)nc1C(=O)NS(C)(=O)=O [Compound 456, 2-[4-cyano-N-[(2-isopropylthiazol-4-yl)methyl]anilino]-5-methyl-N-methylsulfonyl-thiazole-4-carboxamide] | 50.1 nM | 200 nM
20 | Cc1sc(N(Cc2ccc3nccnc3c2)c2ccc(C#N)cc2)nc1C(=O)NS(C)(=O)=O [Compound 404, 2-[4-cyano-N-(quinoxalin-6-ylmethyl)anilino]-5-methyl-N-methylsulfonyl-thiazole-4-carboxamide] | 1000 nM | 3160 nM
21 | Cc1sc(N(Cc2ccc(OC(F)(F)F)c(Cl)c2)c2ccc(C#N)cc2)nc1C(=O)NS(C)(=O)=O [Compound 421, 2-[N-[[3-chloro-4-(trifluoromethoxy)phenyl]methyl]-4-cyano-anilino]-5-methyl-N-methylsulfonyl-thiazole-4-carboxamide] | 20 nM | 200 nM
22 | Cc1sc(N(Cc2cccc(OCC(C)C)c2)c2ccc(C#N)cc2)nc1C(=O)NS(C)(=O)=O [Compound 586, 2-[4-cyano-N-[(3-isobutoxyphenyl)methyl]anilino]-5-methyl-N-methylsulfonyl-thiazole-4-carboxamide] | 79.4 nM | 7940 nM
23 | COc1ccc(CN(c2ccc(C#N)cc2)c2nc(C(=O)NS(C)(=O)=O)c(C)s2)cc1 [Compound 342, 2-[4-cyano-N-[(4-methoxyphenyl)methyl]anilino]-5-methyl-N-methylsulfonyl-thiazole-4-carboxamide] | 63.1 nM | 25.1 nM
24 | Cc1sc(N(Cc2ccc(F)cc2)c2ccc(C#N)cc2)nc1C(=O)NS(=O)(=O)Cc1ccncc1 [Compound 501, 2-[4-cyano-N-[(4-fluorophenyl)methyl]anilino]-5-methyl-N-(4-pyridylmethylsulfonyl)thiazole-4-carboxamide] | 39.8 nM | 63.1 nM
